According to US5461057A, “Hydro-ethano-indeno-pyridines” (priority 1994, dated 1995):

How the values were obtained:
[1] = system: histamine-induced dyspnea; assay: Bronchodilator (in vivo) Guinea Pig Dyspnea; conditions: oral, one hour before histamine challenge
Method: Unanesthetized guinea pigs (250-350 g), fasted overnight were placed in individual closed aerosol chambers which were connected to a Monoghan Ultrasonic nebulizer. The nebulizer can deliver an ultrasonic fog of uniform particles in a range of 1-8 microns. A 0.1% solution of histamine is aerosolized into the chambers causing the guinea pigs to develop dyspnea. The test drug was given orally one hour before the histamine challenge and the onset of dyspnea was recorded. Saline control animals developed dyspnea within 90-120 seconds of aerosol exposure. […] The data was expressed as the number tested over the number survived. The model was sensitive to bronchodilator and H1 antihistamine activity. Further information relating this test can be obtained from the following two publications which are hereby incorporated by reference: Dungan, K. W. and Lish, P. M. J Allergy 32:139-151 (1961). and Lish, P. M., Robbins, S. I. and Petres E. L. J. Pharmacol. Exp. Therap. 153 L 1538 (1966 ).

[2] = system: muricidal (mouse-killing) behavior; assay: Effects on muricidal behavior in rats; format: in vivo, rat; conditions: Rattus norvegicus, read-out: MUR ED50
Excerpt: Blockade of muricidal (mouse-killing) behavior in rats is used as a measure of evaluating the anti-depressant activity of drugs, and the procedure for carrying out this test is set forth in Int. J. Neuro-pharmacal., 5, 405-411 (1966) are hereby incorporated by reference, and in PCT/US91/06705, filed 20 Sep. 1991, which is mentioned above.
(§1) The results for this test are given below as ED50 's in the units of mg/kg.
MUR refers to the test on the effects on muricidal behavior in rats;

[3] = system: LOX human melanoma cell adhesion to human fibronectin; assay: LOX melanoma cell adhesion to fibronectin; format: cell-based; conditions: Homo sapiens, LOX; for inhibition at 10 µM: read-out: % Inhibition at 10 μM; for inhibition at 50 µM: read-out: % Inhibition at 50 μM; for IC50: Table 4, 1 hour adhesion, read-out: LOX FN IC50
Method: (§2) Adhesion assays were run essentially as described previously (Pai et al., J. Biomed. Res. 2: 53, 1992). 96-well plates were coated with human fibronectin (140 ng/well), human vitronectin (75 ng/well), human collagen I (100 ng/well), human collagen IV (100 ng/well), human fibrinogen (1 μg/well), murine laminin (600 ng/well), or polylysine, and incubated overnight in a humidified 37° C. incubator. Excess fibronectin or other substrate was then removed and 0.2 ml of 2 mg/ml bovine serum albumin (BSA)in Dulbecco's phosphate-buffered saline (DPBS) was added to each well, incubated for 2 hours at 37° C., and removed. LOX human melanoma cells, M27 murine lung carcinoma cells or B16F10 mouse melanoma cells were detached from tissue culture flasks with RPMI medium containing 0.2M urea and 10 mM EDTA, and 0.18 ml of cells were added to each well to a final cell concentration of 1×10^5 cells/well. For inhibition studies 20 μl of 10× compound was added to the wells prior to cell addition. Cells were allowed to adhere for 1 hour at 37° C. The wells were then gently washed twice with 0.2 ml DPBS. The fluorescent dye calcein AM (Molecular Probes, Eugene Oreg.) in DPBS (0.1 ml of 1 μM) was added to each well, and the plates were incubated for 1 hour at room temperature. Adherent cells were quantitated by reading the fluorescence on a Cytofluor 2300 fluorescent plate reader (Millipore) at 485 nm excitation and 530 nm emission.
LOX FN-IC50 value for inhibition of adhesion of LOX human melanoma cells to fibronectin coated on a plastic surface.

TBZ-induced ptosis = assay: Effects on tetrabenazine (TBZ)-induced ptosis in mice; format: in vivo, mouse; conditions: Mus musculus, po
Excerpt: Clinically active antidepressant drugs are known to block TBZ-induced ptosis in mice (See Psychosomatic Medicine, Nodine and Moyer, Eds. Lea and Febiger, Philadelphia, 1962, pp 683-90, which is hereby incorporated by reference). Activity in this test is used to predict anti-depressant activity in man.
The procedure for the TBZ-Induced Ptosis Test in Mice is set forth in Psychosomatic Medicine, Nodine and Moyer, Eds. Lea and Febiger, which is hereby incorporated by reference and in PCT/US91/06705, filed 20 Sep. 1991, which is mentioned above.
as §1
TBZ refers to the test of effects on tetrabenazine induced ptosis in mice, p.o.;

pulmonary resistance = assay: Pulmonary Resistance in the Anesthetized Rat; format: in vivo; conditions: 0.5 mpk, i.v., mean of 5 animals, % decrease in pre-drug baseline resistance; for inhibition in vivo at 0.5 mg/kg: Rattus norvegicus, iv, read-out: Pulmonary Resistance in Rats, % Inhibition
Method: Rats (400-500 g) anesthetized with dialurethane were surgically prepared with tracheal and esophageal catheters. These catheters were connected to pressure transducers for recording of air flow, tracheal and esophageal pressures. These pressures formed the basis for measurement of pulmonary resistance. Inhibition of pulmonary resistance is a reflection of bronchodilation.
All compounds were tested i. v. in 5 separate animals. All data are expressed in % decrease in the pre-drug baseline resistance and each number given is the mean of the 5 animals tested.
The model is sensitive to bronchodilator activity.
Further information relating this test can be obtained from the following publications which are hereby incorporated by reference: Comroe et al, J. Appl. Physio. 4:439-44 (1959); Dungan et al J. Pharmacol. Exp. Therap. 164:290-301(1968); and Mead, J. et al. J. Appl. Physio. 5:779-796 (1953).

[4] = system: acetic acid-induced writhing; assay: Acetic Acid Writhing Test in Mice; format: in vivo, mouse; conditions: Mus musculus, po, read-out: WRITH ED50
Excerpt: The blockade of writhing induced by the intraperitoneal injection of acetic acid is an established experimental animal model for the screening of antinociceptive drugs (drugs which prevent the appreciation or transmission of pain sensations).
The procedure for the Acetic Acid Writhing Test in Mice is set forth in Hendershot et al, J. Pharmacol. Exp. Therap. 125:237, (1959); Koster et al., Fed. Proc. 18:412, (1959); and international application PCT/US91/06705, filed 20 Sep. 1991, which are hereby incorporated by reference.
The results for this test are given below in the units of mg/kg which is also abbreviated in this specification as mpk. The results for this test are given as effective doses (ED50 's).

metrazole = assay: Anti-metrazole test in mice; format: in vivo, mouse; conditions: Mus musculus, read-out: MTZ ED50
Method: The anti-metrazole test in mice was carried out as described in Everett et al, J. Pharmacol. Exp. Therap. 81:402-407 (1944); which is hereby incorporated by reference.
(§3) The results for this test are given below as ED50's in the units of mg/kg.

methamphetamine toxicity = assay: Methamphetamine toxicity test in mice; format: in vivo; conditions: Mus musculus, read-out: METHA ED50
Method: The methamphetamine toxicity test in mice was carried out as described in Burn et al, Arch. Int. Pharmacodyn 113:290-295, (1958); and Coscia et al, Arzneim-Forsch (Drug Research) 25:1436-1442, (1975); which are hereby incorporated by reference.
as §3
METHA refers to the methamphetamine toxicity test in mice;

[5] = system: LOX human melanoma cell adhesion to polylysine; assay: LOX melanoma cell adhesion to polylysine; format: cell-based; conditions: read-out: Poly Lys IC50
Method: as §2

[6] = Calcein cytotoxicity assay; format: cell-based; conditions: human, lox melanoma cells; 2 hours, calcein AM assay; read-out: 2 Hr Tox LD50
Method: LOX human melanoma cells were detached from tissue culture flasks with RPMI medium containing 0.2M urea and 10 mM EDTA, and 0.18 ml of cells were added to each well to a final cell concentration of 5×10^4 cells/well. 20 μl of 10× compound was added to the wells prior to cell addition. Cells were incubated with the compound at 37° C. for 1 hour or 5 hour as indicated. Calcein AM in DPBS (0.02 ml of 5 μM) was added to each well, and the plates were incubated for an additional 1 hour at room temperature. Viable cells were quantitated by reading the fluorescence on a Cytofluor 2300 fluorescent plate reader at 485 nm excitation and 530 nm emission.

CN1C2CCC1C1c3ccccc3C(c3ccccc3)C1C2 (stereo not shown) [MM]
responders at 50 mg/kg ([1]; Cavia porcellus, 1 h, 50 mg/kg, read-out: DYSP survivors (converted)): 0%
responders at 100 mg/kg ([1]; Cavia porcellus, 1 h, 100 mg/kg, read-out: DYSP survivors (converted)): 66.7%
ED50 [2]: > 10 mg/kg
inhibition at 10 µM [3]: -1.8%
inhibition at 50 µM [3]: 25.8%
ED50 (TBZ-induced ptosis): 9.3 mg/kg
inhibition in vivo at 0.5 mg/kg (pulmonary resistance): 9%

COc1ccc2c(c1)C(c1ccccc1)C1=C2C2CCC(C1)N2 (stereo not shown) [FF]
DYSP survivors ([1]; 100 mg/kg): 0/3
ED50 [4]: > 30 mg/kg
ED50 (TBZ-induced ptosis): > 30 mg/kg
ED50 (metrazole): > 30 mg/kg
ED50 (methamphetamine toxicity): > 30 mg/kg
Pulmonary Resistance in Rats, % Inhibition (pulmonary resistance): 2%

COc1ccc(C2C3=C(c4ccccc42)C2CCC(C3)N2)cc1 (stereo not shown) [Compound X]
ED50 [2]: > 30 mg/kg
ED50 [4]: > 30 mg/kg
inhibition at 10 µM [3]: 20.8%
inhibition at 50 µM [3]: 99.7%
IC50 [3]: 15 µM
IC50 [5]: 121 µM
ED50 (TBZ-induced ptosis): 17.3 mg/kg
CC50 at 2 h [6]: 67.7 µM
ED50 (methamphetamine toxicity): > 60 mg/kg

c1ccc(C2=C3CC4CCC(N4)C3c3ccccc32)cc1 (stereo not shown) [Q]
DYSP survivors ([1]; 100 mg/kg): 0/3
ED50 [2]: > 10 mg/kg
ED50 [4]: > 30 mg/kg
inhibition at 10 µM [3]: 0.1%
inhibition at 50 µM [3]: 97.1%
IC50 [3]: 19.1 µM
IC50 [5]: 83.6 µM
ED50 (TBZ-induced ptosis): 3.6 mg/kg
ED50 (metrazole): > 30 mg/kg
CC50 at 2 h [6]: 66.7 µM
Pulmonary Resistance in Rats, % Inhibition (pulmonary resistance): 24%

COc1ccc2c(c1)C1=C(CC3CCC1N3C)C2c1ccccc1 (stereo not shown) [Z]
DYSP survivors ([1]; 100 mg/kg): 0/3
ED50 [4]: 17.3 mg/kg
inhibition at 10 µM [3]: -27.6%
inhibition at 50 µM [3]: 67%
IC50 [3]: 28.1 µM
IC50 [5]: > 250 µM
ED50 (TBZ-induced ptosis): > 30 mg/kg
ED50 (metrazole): > 30 mg/kg
CC50 at 2 h [6]: > 250 µM
ED50 (methamphetamine toxicity): > 30 mg/kg

COc1ccc2c(c1)C1C3CCC(CC1C2(O)c1ccccc1)N3C (stereo not shown) [UU]
ED50 [4]: 17.3 mg/kg
inhibition at 10 µM [3]: 10.3%
inhibition at 50 µM [3]: 15.9%
ED50 (TBZ-induced ptosis): > 30 mg/kg
ED50 (metrazole): > 30 mg/kg
ED50 (methamphetamine toxicity): > 30 mg/kg
inhibition in vivo at 0.5 mg/kg (pulmonary resistance): 2%

COc1ccc(C2=C3CC4CCC(C3c3ccccc32)N4C)cc1 (stereo not shown) [R]
DYSP survivors ([1]; 100 mg/kg): 1/3
ED50 [4]: > 30 mg/kg
inhibition at 10 µM [3]: -27.3%
inhibition at 50 µM [3]: 97.1%
IC50 [3]: 15 µM
IC50 [5]: 112 µM
ED50 (TBZ-induced ptosis): 17.3 mg/kg
ED50 (metrazole): > 30 mg/kg
CC50 at 2 h [6]: 138 µM
ED50 (methamphetamine toxicity): > 30 mg/kg
Pulmonary Resistance in Rats, % Inhibition (pulmonary resistance): 26%
